Test results reported in US20240327364A1, “THERAPEUTIC TARGETING OF GPR68 TO INDUCE FERROPTOSIS” (University Of Maryland, Baltimore, priority 2023, published 2024).

Columns and labels:
RWGT2 = test: Cell Titer-Glo viability, Lung cancer, squamous cell; type: cell-based
Method: OGM2 kills wide variety of cancer cell types. Cell sensitivity can be classified in to Very Sensitive (LC50<2 μM), Sensitive (LC50=2 to 10 μM), Mildly Sensitive (LC50>10 μM), and Refractory (no killing at 10 μM). The listed established cell were incubated with OGM2 at 2 μM or 10 μM for 72 hours under standard cell culture conditions, and relative cell number was assessed using Cell Titer-Glo Luminescent Cell Viability Assay (Promega™) following the manufacturer's instructions. Luminescence was determined using a Cytation 5 reader and Gen5 software package (BioTek™).
Cancer cells, which are very sensitive to killing by OGM2 (LCs <2 μM), with reported mRNA expression of GPR68 and the related proton sensing receptor GPR4. LC50's (concentrations causing 50% lethality) were determined using CellTiter-Glo (Promega™, G7570). Cells were plated in 12-well plates (CELLTREAT Scientific Products, 229112) in 1 ml of DMEM with high glucose, GlutaMAX, HEPES, or RPMI 1640 with Penicillin-Streptomycin (ThermoFisher™, 10564029, 11875119 and 15140122) and 10% FBS. Cells were incubated overnight at 37° C. in 5% CO2. Then 1 mL of fresh media was added with DMSO, OGM, or positive control (Erastin; APExBIO Technology, LLC, B1524) and cells incubated for 3 days. On the third day, all media was removed, cells were rinsed with 1×PBS, PBS was removed, and 200 μL of 1× Passive Lysis Buffer (Promega™, E1941) was added to each well. […]. Subsequently, 20 μL of lysate was added to 100 μL CellTiter-Glo™ reagent on a LUMITRAC 200 plate (Greiner™ bio-one, 82050-726). Plates were briefly spun down and read on a GloMax-Multi Detection System (Promega™).
The cells listed in the tables above were incubated with OGM2 at 2 μM or 10 μM for 72 hours under standard cell culture conditions, and relative cell number was assessed using Cell Titer-Glo Luminescent Cell Viability Assay (Promega™) following the manufacturer's instructions. Luminescence was determined using a Cytation 5 reader and Gen5 software package (BioTek™). RNA expression of GPR68 and GPR4 in the corresponding cancer cell lines are listed, according to the publicly available The Human Protein Atlas version 22.0 and Ensembl version 103.38 (see proteinatlas.org). The consensus normalized expression value (“nTPM”=normalize transcript per million) was calculated as the maximum nTPM value for each gene in the two data sources.

U87 = test: MitoTracker / TMRM staining; type: cell-based, human
Source text: Lipid peroxidation associated with ferroptosis is known to disrupt mitochondrial membranes, resulting in smaller mitochondria.

A549 = test: Clonogenicity (crystal violet); type: cell-based; conditions: 8 days
Method: A549 lung cancer cells were plated at 300 cells per well in a 6-well plate and on the next day were treated with increasing concentrations of OGM2 for 8 days. The plate was fixed with formalin and stained with crystal violet. See FIG. 27B for results at the indicated concentrations.

CCR9 = biological target: T1, CCR9 (Homo sapiens, UniProt P51686); test: GPCR Profiler; type: cell-based
T1 construct: host or cells: Chem-1 cells with Gα15
T1 sequence (P51686 whole entry, species assumed): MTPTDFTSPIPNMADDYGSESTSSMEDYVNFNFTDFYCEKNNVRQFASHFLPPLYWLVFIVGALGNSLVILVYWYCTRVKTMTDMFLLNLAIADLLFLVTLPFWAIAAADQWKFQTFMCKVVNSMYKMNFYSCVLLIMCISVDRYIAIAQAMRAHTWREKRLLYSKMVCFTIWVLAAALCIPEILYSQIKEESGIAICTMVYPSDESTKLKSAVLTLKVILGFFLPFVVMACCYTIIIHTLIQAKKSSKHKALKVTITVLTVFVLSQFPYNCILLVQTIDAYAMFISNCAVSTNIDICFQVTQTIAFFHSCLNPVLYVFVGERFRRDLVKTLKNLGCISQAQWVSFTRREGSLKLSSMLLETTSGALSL

ERK8 = biological target: T2, ERK8 (Homo sapiens, UniProt Q8TD08); test: KinomeScan; type: binding; conditions: read-out: % Control
T2 construct: purchased DiscoveRx (Fremont, CA)

MAP3K4 = biological target: T3, MAP3K4 (Homo sapiens, UniProt Q9Y6R4); test: KinomeScan; type: binding; conditions: read-out: % Control
T3 construct: purchased DiscoveRx (Fremont, CA)

ULK1 = biological target: T4, ULK1 (Homo sapiens, UniProt O75385); test: KinomeScan; type: binding; conditions: read-out: % Control
T4 construct: purchased DiscoveRx

FLT3(ITD) = test: KinomeScan; type: binding; conditions: 10 uM
TRKB = biological target: T5, TRKB (Homo sapiens, UniProt Q16620); test: KinomeScan; type: binding; conditions: read-out: % Control
T5 construct: purchased DiscoveRx (Fremont, CA)
T5 sequence (Q16620 32-822): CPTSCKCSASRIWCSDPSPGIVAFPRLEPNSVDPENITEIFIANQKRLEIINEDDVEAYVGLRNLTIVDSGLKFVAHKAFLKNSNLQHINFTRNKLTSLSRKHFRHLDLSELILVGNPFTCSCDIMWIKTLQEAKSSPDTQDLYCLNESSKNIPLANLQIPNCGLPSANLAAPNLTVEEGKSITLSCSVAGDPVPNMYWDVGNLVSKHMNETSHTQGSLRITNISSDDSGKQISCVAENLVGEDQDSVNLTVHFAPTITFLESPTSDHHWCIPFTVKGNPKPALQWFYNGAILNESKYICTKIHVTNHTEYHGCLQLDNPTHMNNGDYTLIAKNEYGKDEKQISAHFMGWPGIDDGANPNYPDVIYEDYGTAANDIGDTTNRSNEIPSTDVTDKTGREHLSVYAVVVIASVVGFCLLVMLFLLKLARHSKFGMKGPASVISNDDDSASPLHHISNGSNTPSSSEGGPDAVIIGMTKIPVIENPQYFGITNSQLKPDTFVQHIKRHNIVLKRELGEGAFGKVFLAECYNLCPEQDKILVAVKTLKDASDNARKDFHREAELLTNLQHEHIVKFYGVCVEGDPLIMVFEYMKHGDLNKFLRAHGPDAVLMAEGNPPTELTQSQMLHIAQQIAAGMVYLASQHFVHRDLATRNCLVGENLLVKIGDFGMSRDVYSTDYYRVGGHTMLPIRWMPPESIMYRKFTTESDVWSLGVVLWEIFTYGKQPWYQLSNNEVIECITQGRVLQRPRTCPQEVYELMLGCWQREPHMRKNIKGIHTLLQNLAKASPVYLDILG

TTK = biological target: T6, TTK (Homo sapiens, UniProt P33981); test: KinomeScan; type: binding; conditions: read-out: % Control
T6 construct: purchased DiscoveRx

PRKD1 = biological target: T7, PRKD1 (Homo sapiens, UniProt Q15139); test: KinomeScan; type: binding; conditions: read-out: % Control
T7 construct: purchased DiscoveRx (Fremont, CA)

PIK4CB = biological target: T8, PIK4CB (Homo sapiens, UniProt Q9UBF8); test: KinomeScan; type: binding; conditions: read-out: % Control
T8 construct: purchased DiscoveRx (Fremont, CA)

MARK1 = biological target: T9, MARK1 (Homo sapiens, UniProt Q9P0L2); test: KinomeScan; type: binding; conditions: read-out: % Control
T9 construct: purchased DiscoveRx (Fremont, CA)

MrgD = biological target: T10, MrgD (Homo sapiens, UniProt Q8TDS7); test: GPCR Profiler; type: cell-based
T10 construct: host or cells: Chem-1 cells expressing Gα15
T10 sequence (Q8TDS7 whole entry, species assumed): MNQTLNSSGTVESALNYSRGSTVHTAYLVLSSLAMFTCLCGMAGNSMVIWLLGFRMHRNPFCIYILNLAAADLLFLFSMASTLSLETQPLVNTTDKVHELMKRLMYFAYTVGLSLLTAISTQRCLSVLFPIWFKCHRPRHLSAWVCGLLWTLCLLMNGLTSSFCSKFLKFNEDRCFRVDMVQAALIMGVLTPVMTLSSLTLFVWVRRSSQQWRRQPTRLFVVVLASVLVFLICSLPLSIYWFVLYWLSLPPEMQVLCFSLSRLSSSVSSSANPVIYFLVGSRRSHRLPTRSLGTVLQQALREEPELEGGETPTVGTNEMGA

PRKG1 = biological target: T11, PRKG1 (Homo sapiens, UniProt Q13976); test: KinomeScan; type: binding; conditions: read-out: % Control
T11 construct: purchased DiscoveRx (Fremont, CA)

CAMKK2 = biological target: T12, CAMKK2 (Homo sapiens, UniProt Q96RR4); test: KinomeScan; type: binding; conditions: read-out: % Control
T12 construct: purchased DiscoveRx (KinomeScan service)
T12 sequence (Q96RR4 whole entry): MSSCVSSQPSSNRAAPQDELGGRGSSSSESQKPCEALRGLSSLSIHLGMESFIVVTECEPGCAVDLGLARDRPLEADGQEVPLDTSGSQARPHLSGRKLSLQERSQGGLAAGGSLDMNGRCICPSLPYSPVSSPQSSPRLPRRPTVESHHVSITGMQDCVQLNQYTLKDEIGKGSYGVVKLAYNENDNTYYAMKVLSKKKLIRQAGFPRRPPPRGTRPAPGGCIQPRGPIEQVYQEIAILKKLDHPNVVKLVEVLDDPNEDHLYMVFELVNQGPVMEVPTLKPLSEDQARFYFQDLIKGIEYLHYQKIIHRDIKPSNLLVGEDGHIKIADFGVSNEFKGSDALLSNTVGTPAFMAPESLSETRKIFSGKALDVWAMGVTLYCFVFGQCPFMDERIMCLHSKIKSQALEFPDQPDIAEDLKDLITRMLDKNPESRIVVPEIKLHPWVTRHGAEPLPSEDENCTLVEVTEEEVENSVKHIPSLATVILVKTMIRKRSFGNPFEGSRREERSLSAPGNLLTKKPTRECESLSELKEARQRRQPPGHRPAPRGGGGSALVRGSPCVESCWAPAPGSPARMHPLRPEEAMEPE

FP = biological target: T13, FP (Homo sapiens, UniProt P43088); test: GPCR Profiler; type: cell-based
T13 construct: host or cells: Chem-1 cells expressing Gα15
T13 sequence (P43088 whole entry): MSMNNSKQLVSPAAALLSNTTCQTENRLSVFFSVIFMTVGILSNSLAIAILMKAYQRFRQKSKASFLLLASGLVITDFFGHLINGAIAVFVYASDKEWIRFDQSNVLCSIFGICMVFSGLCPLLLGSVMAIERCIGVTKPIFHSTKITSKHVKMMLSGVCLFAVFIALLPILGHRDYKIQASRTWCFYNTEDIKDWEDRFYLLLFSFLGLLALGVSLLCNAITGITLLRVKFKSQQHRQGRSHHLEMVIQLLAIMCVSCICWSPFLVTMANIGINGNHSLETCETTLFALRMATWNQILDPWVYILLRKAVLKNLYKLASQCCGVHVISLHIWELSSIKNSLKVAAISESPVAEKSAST

S1P4 = biological target: T14, S1P4 (Homo sapiens, UniProt O95977); test: GPCR Profiler; type: cell-based
T14 construct: host or cells: Chem-1 cells with Gα15
T14 sequence (O95977 whole entry, species assumed): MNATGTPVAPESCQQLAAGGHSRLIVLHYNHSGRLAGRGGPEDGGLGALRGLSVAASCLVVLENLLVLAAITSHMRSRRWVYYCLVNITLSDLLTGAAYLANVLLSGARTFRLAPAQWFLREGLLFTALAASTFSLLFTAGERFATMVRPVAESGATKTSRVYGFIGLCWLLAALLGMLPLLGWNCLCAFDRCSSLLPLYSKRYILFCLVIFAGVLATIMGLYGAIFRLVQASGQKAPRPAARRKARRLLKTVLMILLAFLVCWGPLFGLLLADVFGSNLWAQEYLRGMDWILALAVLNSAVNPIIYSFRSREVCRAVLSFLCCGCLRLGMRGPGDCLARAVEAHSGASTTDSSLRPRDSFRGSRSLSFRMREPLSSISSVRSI

P2Y1 = biological target: T15, P2Y1 (Homo sapiens, UniProt P47900); test: GPCR Profiler; type: cell-based
T15 construct: host or cells: Chem-1 cells expressing Gα15
T15 sequence (P47900 whole entry, species assumed): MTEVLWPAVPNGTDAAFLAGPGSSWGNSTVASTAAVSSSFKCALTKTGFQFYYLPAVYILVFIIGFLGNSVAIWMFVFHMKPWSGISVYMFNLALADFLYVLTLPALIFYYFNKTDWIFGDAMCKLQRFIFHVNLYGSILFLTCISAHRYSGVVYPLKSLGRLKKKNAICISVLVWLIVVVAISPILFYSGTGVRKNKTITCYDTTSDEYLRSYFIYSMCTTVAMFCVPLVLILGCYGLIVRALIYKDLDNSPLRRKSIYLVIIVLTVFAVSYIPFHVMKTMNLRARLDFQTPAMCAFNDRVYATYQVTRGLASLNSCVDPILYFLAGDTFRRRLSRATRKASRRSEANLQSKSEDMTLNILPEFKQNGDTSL

TEC = biological target: T16, TEC (Homo sapiens, UniProt P42680); test: KinomeScan; type: binding; conditions: read-out: % Control
T16 construct: purchased DiscoveRx (Fremont, CA)
T16 sequence (P42680 whole entry): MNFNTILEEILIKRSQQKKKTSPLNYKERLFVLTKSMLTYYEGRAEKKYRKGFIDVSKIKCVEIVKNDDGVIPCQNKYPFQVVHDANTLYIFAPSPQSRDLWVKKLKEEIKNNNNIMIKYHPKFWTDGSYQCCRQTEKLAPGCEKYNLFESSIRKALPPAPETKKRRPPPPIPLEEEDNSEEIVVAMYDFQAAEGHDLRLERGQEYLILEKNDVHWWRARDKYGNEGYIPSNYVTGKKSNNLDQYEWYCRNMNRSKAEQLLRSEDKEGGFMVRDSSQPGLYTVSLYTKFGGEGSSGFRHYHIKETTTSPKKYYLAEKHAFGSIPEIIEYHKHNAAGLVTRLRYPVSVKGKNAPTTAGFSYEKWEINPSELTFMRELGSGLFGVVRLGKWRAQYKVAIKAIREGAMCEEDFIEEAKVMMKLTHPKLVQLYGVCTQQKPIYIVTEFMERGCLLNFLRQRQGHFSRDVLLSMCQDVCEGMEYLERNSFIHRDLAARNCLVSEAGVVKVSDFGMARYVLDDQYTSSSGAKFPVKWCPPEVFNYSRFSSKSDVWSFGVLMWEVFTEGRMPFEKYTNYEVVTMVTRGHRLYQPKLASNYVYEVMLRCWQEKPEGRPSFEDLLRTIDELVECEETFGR

FLT3(R834Q) = biological target: T17, FLT3(R834Q) (Homo sapiens, UniProt P36888, R834Q); test: KinomeScan; type: binding; conditions: read-out: % Control
T17 construct: purchased DiscoveRx (Fremont, CA)

MC4 = biological target: T18, MC4 (Homo sapiens, UniProt P32245); test: GPCR Profiler; type: cell-based
T18 construct: host or cells: Chem-1 cells with promiscuous Gα15
T18 sequence (P32245 whole entry): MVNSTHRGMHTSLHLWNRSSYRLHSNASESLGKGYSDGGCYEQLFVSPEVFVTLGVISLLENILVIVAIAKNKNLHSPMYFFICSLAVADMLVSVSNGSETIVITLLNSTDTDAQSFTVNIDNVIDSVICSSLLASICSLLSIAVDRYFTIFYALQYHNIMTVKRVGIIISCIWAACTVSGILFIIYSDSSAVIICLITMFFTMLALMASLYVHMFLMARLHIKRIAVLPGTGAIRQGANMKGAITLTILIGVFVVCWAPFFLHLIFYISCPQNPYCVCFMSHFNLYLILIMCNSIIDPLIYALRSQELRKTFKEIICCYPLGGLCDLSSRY

TP = biological target: T19, TP (Homo sapiens, UniProt P21731); test: GPCR Profiler; type: cell-based
T19 construct: host or cells: Chem-1 cells with Gα15
T19 sequence (P21731 whole entry): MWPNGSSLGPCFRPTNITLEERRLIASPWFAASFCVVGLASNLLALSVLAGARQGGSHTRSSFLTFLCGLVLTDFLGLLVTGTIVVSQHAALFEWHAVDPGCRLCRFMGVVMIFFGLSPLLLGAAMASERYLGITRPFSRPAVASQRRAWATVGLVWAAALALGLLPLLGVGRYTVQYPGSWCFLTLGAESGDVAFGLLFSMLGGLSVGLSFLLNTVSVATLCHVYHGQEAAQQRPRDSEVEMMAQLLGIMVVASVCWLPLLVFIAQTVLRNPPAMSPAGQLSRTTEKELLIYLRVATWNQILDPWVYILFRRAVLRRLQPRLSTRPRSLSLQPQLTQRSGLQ

CCc1ccc2c(c1)C1(NN=C(c3ccccc3)S1)C(=O)N2 (stereo not drawn) [OGM2]
Class (RWGT2): Very Sensitive (Very Sensitive (LC50<2 μM)) | % Survival 2 μM OGM (RWGT2; 72 hours): 39.9% | % Survival 10 μM OGM (RWGT2; 72 hours): 37.1% | CC50 (RWGT2; Homo sapiens, 72 hours, read-out: LC50 (the source's name)): < 2000 nM | mitochondrial membrane potential (TMRM) (U87): decreased mitochondrial membrane potential | clonogenicity (A549): reduced the clonogenicity of lung cancer cells

CCc1ccc2c(c1)C1(NN=C(c3cccc4ccccc34)S1)C(=O)N2 (stereo not drawn) [OGM1, 5-ethyl-5′-naphthalen-1-ylspiro[1H-indole-3,2′-3H-1,3,4-thiadiazole]-2-one]
Antagonism (CCR9; 10 uM): 0.6 | Agonism (CCR9; 12.5 uM): 0.4 | remaining binding at 10 µM (ERK8): 100% | remaining binding at 10 µM (MAP3K4): 100% | remaining binding at 10 µM (ULK1): 100% | % Control (FLT3(ITD)): 100% | remaining binding at 10 µM (TRKB): 51% | remaining binding at 10 µM (TTK): 75% | remaining binding at 10 µM (PRKD1): 100% | remaining binding at 10 µM (PIK4CB): 71% | remaining binding at 10 µM (MARK1): 100% | Antagonism (MrgD; 10 uM): −2.2 | Agonism (MrgD; 12.5 uM): −0.1 | remaining binding at 10 µM (PRKG1): 100% | remaining binding at 10 µM (CAMKK2): 89% | Antagonism (FP; 10 uM): 8.9 | Agonism (FP; 12.5 uM): 0.9 | Antagonism (S1P4; 10 uM): −5.2 | Agonism (S1P4; 12.5 uM): 0.3 | Antagonism (P2Y1; 10 uM): −6.3 | Agonism (P2Y1; 12.5 uM): 1.7 | remaining binding at 10 µM (TEC): 93% | remaining binding at 10 µM (FLT3(R834Q)): 100% | Antagonism (MC4; 10 uM): −5.4 | Agonism (MC4; 12.5 uM): −0.3 | Antagonism (TP; 10 uM): 8.1 | Agonism (TP; 12.5 uM): 0.2
